The record followed here is patent US20220380319A1 (Bial - R&D Investments, S.A., priority 2019, published 2022).

The structures appear in SMILES notation. In brackets after ≈: the same amount, converted by molar mass. A value given as a limit tells only on which side of the number the result lay.

Series [1] concerns the target T1, acid ceramidase (Homo sapiens, UniProt Q13510).
T1 construct: Cell lysates overexpressing acid ceramidase were used as the enzyme source; expressed in transfected cells
T1 sequence (Q13510 22-395): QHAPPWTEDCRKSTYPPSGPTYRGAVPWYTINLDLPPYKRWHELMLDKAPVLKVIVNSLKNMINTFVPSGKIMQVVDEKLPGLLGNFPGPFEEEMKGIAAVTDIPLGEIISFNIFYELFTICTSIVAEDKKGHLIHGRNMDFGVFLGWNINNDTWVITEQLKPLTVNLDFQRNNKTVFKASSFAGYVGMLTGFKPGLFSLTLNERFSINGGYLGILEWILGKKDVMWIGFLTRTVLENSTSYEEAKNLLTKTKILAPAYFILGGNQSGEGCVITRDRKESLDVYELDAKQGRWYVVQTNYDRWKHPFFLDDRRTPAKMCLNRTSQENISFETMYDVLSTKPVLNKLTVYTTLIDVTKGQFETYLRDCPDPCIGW
The series is described as follows: Acid ceramidase inhibition, biochemical fluorescent assay with cell lysates overexpressing acid ceramidase, substrate Rbm14-12. As to conditions: substrate Rbm14-12 6.3 μM. The essentials: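 Lysate of cells overexpressing acid ceramidase (10 μg protein) preincubated with compound dose series 1 hr at RT in 25 mM NaAC, 100 mM NaCl, pH 4.5, then reacted 1 hr with 6.3 μM Rbm14-12. Stopped with NaIO4/glycine buffer pH 10.6, fluorescence ex360/em446; IC50 by four-parameter fit.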

The nature of series [2]: Compound solubility in water.
Where [3] appears, read: pH 4.5, 1 hr preincubation at RT.

`CN1CCC(c2cc3c(cc2Cl)ncn3C(=O)NCCc2ccccc2)CC1` [Example 11a, 5-Chloro-6-(1-methylpiperidin-4-yl)-N-phenethyl-1H-benzo[d]imidazole-1-carboxamide] gave a 50% inhibitory concentration (IC50) in series [1] (setting [3]) of under 200 nM. This compound also registered a solubility in series [2] of 23.1 µg/mL (≈ 58.2 µM).
On to `COc1nc2c(N3CCN(C)CC3)cccc2n1C(=O)NCCC(C)C` [Example 145, N-iso-Pentyl-2-methoxy-4-(4-methylpiperazin-1-yl)-1H-benzo[d]imidazole-1-carboxamide], for which the half-maximal inhibitory concentration (IC50) in series [1] (setting [3]) is over 1000 nM. The compound also returned a solubility in series [2] of 46 µg/mL (≈ 128 µM).
For `CN1CCN(c2cccc3c2ncn3C(=O)NCc2ccc3c(c2)OCO3)CC1` [Example 346, N-(Benzo[d][1,3]dioxol-5-ylmethyl)-4-(4-methylpiperazin-1-yl)-1H-benzo[d]imidazole-1-carboxamide], in that order: under 200 nM and 11 µg/mL (≈ 28 µM).
In series [1] (pH 4.5), `CC(C)CCNC(=O)n1cnc2c(N3[C@@H]4CC[C@H]3COC4)cccc21` [Example 220, 4-((1R,5S)-3-Oxa-8-azabicyclo[3.2.1]octan-8-yl)-N-isopentyl-1H-benzo[d]imidazole-1-carboxamide] yielded a half-inhibitory concentration (IC50) of 200 to 1000 nM. Further, the solubility in series [2] came to 4 µg/mL (≈ 11.7 µM).
The matching figures for `CC(C)C#CCNC(=O)n1cnc2c(N3CCN(C4CN(C)C4)CC3)cccc21` [Example 299, 4-(4-(1-Methylazetidin-3-yl)piperazin-1-yl)-N-(4-methylpent-2-yn-1-yl)-1H-benzo[d]imidazole-1-carboxamide]: under 200 nM and 30 µg/mL (≈ 76 µM).
The compound `CC(=O)N1CCN(c2cccc3c2ncn3C(=O)NCCCC2(C(F)(F)F)CC2)CC1` [Example 235, 4-(4-Acetylpiperazin-1-yl)-N-(3-(1-(trifluoromethyl)cyclopropyl)propyl)-1H-benzo[d]imidazole-1-carboxamide] returned an IC50 in series [1] (pH 4.5) of under 200 nM. The same compound came in with a solubility in series [2] of 20 µg/mL (≈ 45.7 µM).
Take `CCCCNC(=O)n1cnc2cc(N3CCC(N4CCN(C)CC4)CC3)ccc21` [Example 102b, N-butyl-5-(4-(4-methylpiperazin-1-yl)piperidin-1-yl)-1H-benzo[d]imidazole-1-carboxamide]: the IC50 in series [1] (setting [3]) was 200 to 1000 nM. In addition, the solubility in series [2] came out at 36.1 µg/mL (≈ 90.6 µM).
For `O=C(NCCCC(F)(F)F)n1cnc2ccccc21` [Example 80, N-(4,4,4-Trifluorobutyl)-1H-benzo[d]imidazole-1-carboxamide], in that order: under 200 nM and 21.1 µg/mL (≈ 77.8 µM).
For the compound `CN1C[C@H]2C[C@@H]1CN2c1cccc2c1ncn2C(=O)NCCCc1ccccc1` [Example 246, 4-((1R,4R)-5-Methyl-2,5-diazabicyclo[2.2.1]heptan-2-yl)-N-(3-phenylpropyl)-1H-benzo[d]imidazole-1-carboxamide], the IC50 in series [1] (pH 4.5) is under 200 nM. Moreover, the solubility in series [2] came to 29 µg/mL (≈ 74.5 µM).
For `CN(C)CC1CN(c2cccc3c2ncn3C(=O)NCCOc2ccccc2)C1` [Example 330, 4-(3-((Dimethylamino)methyl)azetidin-1-yl)-N-(2-phenoxyethyl)-1H-benzo[d]imidazole-1-carboxamide], in series [1] (pH 4.5), the concentration for half-maximal inhibition (IC50) was under 200 nM. The amount in solution in series [2] (solubility) came to 38 µg/mL (≈ 96.6 µM).
Take `CN1CCN(C2CN(c3cccc4c3ncn4C(=O)NCC(C)(C)Oc3ccccc3)C2)CC1` [Example 344, N-(2-Methyl-2-phenoxypropyl)-4-(3-(4-methylpiperazin-1-yl)azetidin-1-yl)-1H-benzo[d]imidazole-1-carboxamide]: in series [1] (setting [3]), the IC50 is under 200 nM. The same compound came in with a solubility in series [2] of 29 µg/mL (≈ 62.7 µM).
`O=C(NCCC1CCC(F)(F)C1)n1cnc2c(N3CCN4CCCC4C3)cccc21` (centres unmarked) [Example 290, N-(2-(3,3-Difluorocyclopentyl)ethyl)-4-(hexahydropyrrolo[1,2-a]pyrazin-2(1H)-yl)-1H-benzo[d]imidazole-1-carboxamide] showed an IC50 in series [1] (pH 4.5) of 200 to 1000 nM. The compound also yielded a solubility in series [2] of 28 µg/mL (≈ 67.1 µM).
On to `CC(C)CCNC(=O)n1cnc2ccccc21` [Example 107, N-iso-Pentyl-1H-benzo[d]imidazole-1-carboxamide], for which the IC50 in series [1] (setting [3]) was under 200 nM. In series [2], this compound showed a solubility of 13.9 µg/mL (≈ 60.1 µM).
`COc1nc2cc(F)c(N3CCOCC3)cc2n1C(=O)NCC#CC(C)C` [Example 321b, 5-fluoro-2-methoxy-N-(4-methylpent-2-yn-1-yl)-6-morpholino-1H-benzo[d]imidazole-1-carboxamide] gave an IC50 in series [1] (pH 4.5) of 200 to 1000 nM. In series [2], the concentration in solution (solubility) was 3 µg/mL (≈ 8.01 µM).
The matching figures for `CN1CCN(c2cccc3c2ncn3C(=O)NCCC2CCCC2(F)F)CC1` (centres unmarked) [Example 259, N-(2-(2,2-Difluorocyclopentyl)ethyl)-4-(4-methylpiperazin-1-yl)-1H-benzo[d]imidazole-1-carboxamide]: 200 to 1000 nM and 21 µg/mL (≈ 53.6 µM).
Compound `CC(C)CCNC(=O)n1cnc2c(N3CCN(C4COC4)CC3)cccc21` [Example 154, N-iso-Pentyl-4-(4-(oxetan-3-yl)piperazin-1-yl)-1H-benzo[d]imidazole-1-carboxamide] showed a half-inhibitory concentration (IC50) in series [1] (setting [3]) of 200 to 1000 nM. In series [2], this compound displayed a solubility of 30 µg/mL (≈ 80.8 µM).
Compound `CC(C)CCNC(=O)n1cnc2c(N3CCN(CCC#N)CC3)cccc21` [Example 200, 4-(4-(2-Cyanoethyl)piperazin-1-yl)-N-iso-pentyl-1H-benzo[d]imidazole-1-carboxamide] gave an IC50 in series [1] (pH 4.5) of 200 to 1000 nM. In addition, the concentration in solution in series [2] (solubility) was 30 µg/mL (≈ 81.4 µM).
For `CN1CCN(c2cccc3c2ncn3C(=O)NCC#CC2CC2)CC1` [Example 283, N-(3-Cyclopropylprop-2-ynyl)-4-(4-methylpiperazin-1-yl)-1H-benzo[d]imidazole-1-carboxamide], in that order: under 200 nM and 28 µg/mL (≈ 83 µM).
For `CN1CC(N2CCN(c3cccc4c3ncn4C(=O)NCCC3CCC(F)(F)C3)CC2)C1` (centres unmarked) [Example 287, N-(2-(3,3-Difluorocyclopentyl)ethyl)-4-(4-(1-methylazetidin-3-yl)piperazin-1-yl)-1H-benzo[d]imidazole-1-carboxamide], in that order: 200 to 1000 nM and 36 µg/mL (≈ 80.6 µM).
For `COCCOc1nc2cc(N3CCOCC3)ccc2n1C(=O)NCCCc1ccccc1` [Example 190a, 2-(2-Methoxyethoxy)-5-morpholino-N-(3-phenylpropyl)-1H-benzo[d]imidazole-1 carboxamide], in that order: under 200 nM and 17 µg/mL (≈ 38.8 µM).
`Cn1c(=O)n(C(=O)NCCc2ccccc2)c2ccc(-c3cncnc3)cc21` [Example 32b, 3-methyl-2-oxo-N-phenethyl-5-(pyrimidin-5-yl)-2,3-dihydro-1H-benzo[d]imidazole-1-carboxamide] registered an IC50 in series [1] (setting [3]) of over 1000 nM. In addition, in series [2], the solubility is 0.3 µg/mL (≈ 0.803 µM).
For `CC(C)C#CCNC(=O)n1cnc2c(N3CC4(CN(C)C4)C3)cccc21` [Example 358, 4-(6-Methyl-2,6-diazaspiro[3.3]heptan-2-yl)-N-(4-methylpent-2-yn-1-yl)-1H-benzo[d]imidazole-1-carboxamide], in that order: 200 to 1000 nM and 33 µg/mL (≈ 93.9 µM).
As to `CC(C)C#CCNC(=O)n1cnc2c(N3CCN(CCF)CC3)cccc21` [Example 309, 4-(4-(2-Fluoroethyl)piperazin-1-yl)-N-(4-methylpent-2-yn-1-yl)-1H-benzo[d]imidazole-1-carboxamide], in series [1] (pH 4.5), the IC50 is under 200 nM. Besides, the solubility in series [2] came out at 22 µg/mL (≈ 59.2 µM).
Take `O=C(NCCc1ccccc1)n1cnc2cc(N3CCCCC3)ccc21` [Example 13a, N-Phenethyl-5-(piperidin-1-yl)-1H-benzo[d]imidazole-1-carboxamide]: the IC50 in series [1] (setting [3]) was under 200 nM. Besides, the solubility in series [2] was 2.6 µg/mL (≈ 7.46 µM).
In series [1] (pH 4.5), `CC(C)CCNC(=O)n1cnc2c(N3CCO[C@@H](C(C)C)C3)cccc21` [Example 172a, (S)—N-iso-Pentyl-4-(2-iso-propylmorpholino)-1H-benzo[d]imidazole-1-carboxamide] returned an IC50 of 200 to 1000 nM. In series [2], the solubility stood at 4 µg/mL (≈ 11.2 µM).
For the compound `CC(C)CCNC(=O)n1cnc2c(C3CCN(C)CC3)cc(Cl)cc21` [Example 112b], the IC50 in series [1] (setting [3]) lay within 200 to 1000 nM. Besides, in series [2], the concentration in solution (solubility) came to 20 µg/mL (≈ 55.1 µM).
On to `COc1nc2cc(F)c(N3CCOCC3)cc2n1C(=O)NCCc1ccccc1` [Example 334a, 5-Fluoro-2-methoxy-6-morpholino-N-(2-phenethyl)-1H-benzo[d]imidazole-1-carboxamide], for which, in series [1] (pH 4.5), the concentration for half-maximal inhibition (IC50) was under 200 nM. Further, the solubility in series [2] was found to be 3 µg/mL (≈ 7.53 µM).
`CN1CCN(CCOc2nc3ccccc3n2C(=O)NCCc2ccccc2)CC1` [Example 343]: in series [1] (setting [3]), the IC50 is 200 to 1000 nM. This compound also displayed a solubility in series [2] of 24 µg/mL (≈ 58.9 µM).
With `CN1CCN(c2cccc3c2ncn3C(=O)NCCCC2CC(F)(F)C2)CC1` [Example 260, N-(3-(3,3-Difluorocyclobutyl)propyl)-4-(4-methylpiperazin-1-yl)-1H-benzo[d]imidazole-1-carboxamide], in series [1] (pH 4.5), the IC50 is 200 to 1000 nM. The solubility in series [2] is 31 µg/mL (≈ 79.2 µM).
Regarding `CN1CCC2(CC1)CN(c1cccc3c1ncn3C(=O)NCCOc1ccccc1)C2` [Example 350, 4-(7-Methyl-2,7-diazaspiro[3.5]nonan-2-yl)-N-(2-phenoxyethyl)-1H-benzo[d]imidazole-1-carboxamide], the IC50 in series [1] (setting [3]) was under 200 nM. The compound further came in with a solubility in series [2] of 35 µg/mL (≈ 83.4 µM).
In series [1] (pH 4.5), `CN1CC(N2CCN(c3cccc4c3ncn4C(=O)NCCc3ccccc3)CC2)C1` [Example 325, 4-(4-(1-Methylazetidin-3-yl)piperazin-1-yl)-N-phenethyl-1H-benzo[d]imidazole-1-carboxamide] showed an IC50 of under 200 nM. The same compound registered a solubility in series [2] of 32 µg/mL (≈ 76.5 µM).
